Measurements reported in patent publication US6881719B2, “β-turn peptidomimetic cyclic compounds” (McGill University, priority 2000, dated 2005).

Key:
B104 cells = test: Cell survival control, B104 cells; assay type: cell-based, rat
From the text: (§1) The 4-3.6 cells are B104 cells stably transfected with human trkA cDNA, and express equal levels of p75 and TrkA (TrkA+ p75+). For screening agents that activate or antagonize TrkC receptors, NIH3T3 fibroblasts were stably transfected with human TrkC cDNA. These cells respond to the ligand NT-3. For screening agents that activate or antagonize TrkA receptors, NIH3T3 fibroblasts were stably transfected with human TrkA cDNA. These cells respond to the ligand NGF.
(§2) Cell lines: 5,000 cells/well in protein-free media (PFHM-II, GIBCO, Toronto) containing 0.2% bovine serum albumin (BSA) (Crystalline fraction V, Sigma, St. Louis, Mo.) were seeded in 96 well plates (Falcon, Mississauga, Ontario). The cultures were untreated, or treated with the indicated test or control ligands. Cell viability was quantitated using the MTT assay after 56-72 hours of culture. […] The OD of untreated cells were subtracted. The higher optical density of untreated primary cultures is likely due to cellular heterogeneity and to endogenous production of limiting amounts of growth factors.

[1] = biological target: T1, TrkA•TrkA homodimers (4-3.6 cells) (Homo sapiens, UniProt P04629); test: Detection of putative TrkA•TrkA homodimers by cross-linking and western blot; assay type: cell-based
T1 construct: expressed in transfected cells
T1 sequence (P04629 33-796): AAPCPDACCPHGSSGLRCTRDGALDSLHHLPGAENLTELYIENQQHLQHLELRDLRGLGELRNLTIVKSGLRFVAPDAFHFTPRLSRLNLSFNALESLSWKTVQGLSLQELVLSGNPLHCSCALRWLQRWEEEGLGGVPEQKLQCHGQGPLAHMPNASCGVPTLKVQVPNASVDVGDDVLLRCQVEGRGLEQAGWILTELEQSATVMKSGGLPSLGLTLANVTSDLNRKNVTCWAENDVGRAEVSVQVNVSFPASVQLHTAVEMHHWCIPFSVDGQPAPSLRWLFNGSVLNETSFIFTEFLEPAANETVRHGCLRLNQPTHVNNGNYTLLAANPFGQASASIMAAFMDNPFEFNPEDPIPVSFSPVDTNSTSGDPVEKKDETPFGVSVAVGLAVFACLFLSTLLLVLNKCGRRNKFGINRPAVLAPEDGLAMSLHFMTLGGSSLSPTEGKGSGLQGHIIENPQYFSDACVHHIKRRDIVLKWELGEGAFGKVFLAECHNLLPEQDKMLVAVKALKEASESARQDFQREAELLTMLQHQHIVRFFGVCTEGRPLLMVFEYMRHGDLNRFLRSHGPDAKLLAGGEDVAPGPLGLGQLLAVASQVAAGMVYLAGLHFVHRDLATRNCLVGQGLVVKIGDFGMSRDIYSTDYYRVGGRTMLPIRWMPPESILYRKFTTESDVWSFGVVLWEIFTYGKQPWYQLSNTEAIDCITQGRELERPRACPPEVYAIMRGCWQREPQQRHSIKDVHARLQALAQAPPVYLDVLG
Protocol: In FIG. 2, 4-3.6 cells were exposed to TrkA ligands as per Table 5 (lanes 1-4) or no ligand (lanes 5 and 6), and chemically cross-linked (lanes 1-5) or not cross-linked (lane 6). Cell lysates were western blotted with anti-TrkA 203 antisera.
Live 4-3.6 cells suspended in PBS were treated with the indicated ligand(s) for 40 min at 4° C. to allow binding. Cells were then washed in PBS, cross-linked with the membrane impermeable cross-linker disuccinimidyl suberate (DSS, Pierce; 1 mM DSS, 15 minutes at 15° C.). Unreacted DSS was quenched with 5 mM ammonium acetate. Then cells were either lysed directly in SDS sample buffer (whole cell lysate), or lysed in non-ionic detergent NP-40 and immunoprecipitated with anti-Trk or anti-p75 antibodies as described (LeSauteur et al., 1996). […] For western blot analysis, equal amounts of protein or cell equivalents for each sample were resolved in a 5-10% SDS-PAGE gradient, transferred to nitrocellulose membranes (Xymotech Biosystems, Montréal, Qc), and blotted with anti-Trk polyclonal antibody 203 that recognizes the intracellular domain of Trk. Blots were visualized using the enhanced chemiluminescence (ECL) system (New England Nuclear, Boston, Mass.).

B104 cells (p75+ TrkA-) = test: FACScan binding of D3-biotin to B104 cells; design: species or system rat; details: D3-biotin 20 μM + D3 200 μM as competitor
cell surface TrkA = biological target: T2, cell surface TrkA (Homo sapiens, UniProt P04629); test: FACScan competition of mAb 5C3 binding on 4-3.6 cells; details: for % Maximal binding of mAb 5C3: mAb 1 nM
T2 construct: expressed in transfected cells
T2 sequence (P04629 33-796): as above
From the text: as §1
(§3) FACScan binding assays: 4-3.6 cells (2×10^5) in FACScan binding buffer (PBS, 0.5% BSA, and 0.1% NaN3) were immunostained as described (Saragovi et al., 1998). Saturating anti-TrkA mAb 5C3, or anti-p75 mAb MC192, or control non-binding IgGs were added to cells for 1 hour at 4° C., in the presence or absence of D3 as competitor. Excess primary antibody was washed off, and cells were immunostained with fluorescinated goat-anti-mouse IgG secondary antibody. Cells were acquired on a FACScan and mean channel fluorescence of bell-shaped histograms were analyzed using the LYSIS II program.

[2] = biological target: T3, cell surface TrkA (4-3.6 cells, p75+ TrkA+) (Homo sapiens, UniProt P04629); test: FACScan binding of D3-biotin to 4-3.6 cells
T3 construct: expressed in transfected cells
T3 sequence (P04629 33-796): as above
From the text: as §1, §3
FACScan analysis featuring the secondary fluorescent agent avidin-FITC was used to detect binding of D3-biotin to the cell surface (Table 1). The 4-3.6 cells (p75+TrkA+) had fluorescence approximately 4 times greater for D3-biotin than for a background control peptide-biotin.

[3] = system: TrkB-expressing HEK293 cells; test: Cell survival control, TrkB-expressing HEK293 cells; assay type: cell-based
Protocol: as §2

[4] = biological target: T4, NIH3T3 fibroblasts expressing TrkA (Homo sapiens, UniProt P04629); test: Cell survival (MTT), NIH-TrkA; assay type: cell-based; details: for NIH-TrkA % Protection: 72 hours;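 for NIH-TrkA % Protection: 100% equals survival with optimal NGF at 1 nM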
T4 construct: expressed in transfected cells; host or cells: NIH3T3 fibroblasts
T4 sequence (P04629 33-796): as above
From the text: as §1, with “These cells respond to the ligand NT-3.” left out, “cDNA.” for “cDNA. These cells respond to the ligand NGF.”
as §2, with “subtracted.” for “subtracted. The higher optical density of untreated primary cultures is likely due to cellular heterogeneity and to endogenous production of limiting amounts of growth factors.”

[5] = Enhancement of trophic effect of EGF; assay type: cell-based
[6] = biological target: T5, HEK 293 cells expressing TrkB/TrkA IgG-C2 chimeric receptor (Homo sapiens, UniProt P04629+Q16620); test: Cell survival (MTT), HEK 293-TrkB/TrkA IgG-C2 chimera; assay type: cell-based; details: HEK 293-TrkB/TrkA chimera, 72 hours;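 for % Protection: 100% equals survival with optimal NGF at 1 nM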
T5 construct: The IgG-C2 domain of human TrkA was generated using unique restriction sites; expressed in transfected cells
T5 sequence (P04629 299-365 limits assumed, change not shown, one chain of several): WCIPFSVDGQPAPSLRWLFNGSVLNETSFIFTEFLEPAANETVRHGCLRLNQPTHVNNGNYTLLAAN
From the text: The IgG-C2 domain of human TrkA was generated using unique restriction sites in the primers to allow exchange with the corresponding rat TrkB domain. The chimeric receptors were constructed by subcloning the human TrkA IgG-C2 domain into the corresponding restriction sites of the rat trkB cDNA reported in a previous work (Perez et al., 1995). Chimeric constructs were confirmed by sequencing, and were cloned into the pCDNA3 expression vector that contains a selection gene providing resistance to neomycin (G418, GIBCO). HEK293 cells were transfected using the lipofectamine plus method (GIBCO), selected with neomycin (0.5 mg/ml) and at least 3 independent subclones were obtained by limiting dilution techniques (293-TrkB/A-IgC2 chimera).
as §2, with “subtracted.” for “subtracted. The higher optical density of untreated primary cultures is likely due to cellular heterogeneity and to endogenous production of limiting amounts of growth factors.”

[7] = system: wild type NIH3T3 fibroblasts; test: Cell survival (MTT), NIH wt; assay type: cell-based; details: 72 hours
From the text: as §1, §2

intensity of the Mr 300 kDa band (TrkA dimers), standardized to 1 nM NGF (100%) ([1]; 10 pM NGF + 10 μM D3): 77±7%
intensity of the Mr 300 kDa band (TrkA dimers), standardized to 1 nM NGF (100%) ([1]; 10 μM D3 alone): 21±4%
Kd (cell surface TrkA; estimated from experimental conditions, read-out: Kd for D3•TrkA interactions): ~2 µM
IC50 (cell surface TrkA; intact 4-3.6 cells, on average, read-out: IC50, decrease of mAb 5C3•TrkA interactions): 4 µM
% Maximal binding of mAb 5C3 (cell surface TrkA; competitor 0.20 μM): 95 ± 4%
% Maximal binding of mAb 5C3 (cell surface TrkA; competitor 1 μM): 80 ± 3%
% Maximal binding of mAb 5C3 (cell surface TrkA; competitor 5 μM): 53 ± 5%
% Maximal binding of mAb 5C3 (cell surface TrkA; competitor 40 μM): 33 ± 4%
competition of D3-biotin binding ([2]; 10-fold molar excess of D3): abolished binding of D3-biotin
MCF (mean channel fluorescence) ([2]; D3-biotin 20 μM + D3 200 μM as competitor): 17 ± 7
SMILES: NCCCC[C@@H]1NC(=O)[C@H](CCC(=O)O)NC(=O)c2cc([N+](=O)[O-])ccc2OCCC(C(=O)NCC(=O)O)NC1=O (some centres unmarked) [D3, EKHse-G-OH]
protection from apoptosis (B104 cells): neither D3 nor NGF protected
MCF (mean channel fluorescence) (B104 cells (p75+ TrkA-)): 11 ± 2
protection from apoptosis [3]: neither D3 nor NGF protected
enhancement of NGF protection ([4]; NIH3T3 cells stably transfected with TrkA cDNA): enhanced NGF protection
NIH-TrkA % Protection ([4]; agent 10 μM + 10 pM NGF): 51 ± 5%
NIH-TrkA % Protection ([4]; agent 10 μM alone): 8 ± 4%
enhancement of the trophic effect of EGF [5]: did not enhance
% Protection ([6]; compound 10 μM + 10 pM NGF): 42 ± 5%
Optical Density ([6]; compound 10 μM + 10 pM NGF): 165 ± 11
% Protection ([6]; compound 10 μM alone): 9 ± 3%
Optical Density ([6]; compound 10 μM alone): 69 ± 7
NIH wt % Protection ([7]; agent 10 μM + 10 pM NGF): 0 ± 3%
NIH wt % Protection ([7]; agent 10 μM alone): −3 ± 5%
